Several values for one entry are separate records, joined by “and”; a condition that tells them apart may be missing. Equal values may be shown once. Toxic doses and inconclusive results are not listed.
Test system: L1210 leukemia ip in BDF1 mice, survival T/C
Assay: NCI In Vivo Anticancer Drug Screen. Data for tumor model L1210 Leukemia (intraperitoneal) in B6D2F1 (BDF1) mice
Settings: higher = longer survival
Method in brief: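 Survival endpoint. Drug-treated group vs vehicle group, expressed as T divided by C. Tumor passaged by transplantation.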

[1] = endpoint: mean survival time, dose: 100.0 mg/kg/injection, schedule: Q04DX003 (ip), vehicle: Klucel (hydroxypropylcellulose) (HPC)
[2] = endpoint: mean survival time, dose: 200.0 mg/kg/injection, schedule: Q04DX003 (ip), vehicle: Klucel (hydroxypropylcellulose) (HPC)
[3] = endpoint: mean survival time, dose: 400.0 mg/kg/injection, schedule: Q04DX003 (ip), vehicle: Klucel (hydroxypropylcellulose) (HPC)
[4] = endpoint: mean survival time, dose: 100.0 mg/kg/injection, schedule: Q01DX001 (ip), vehicle: saline
[5] = endpoint: mean survival time, dose: 200.0 mg/kg/injection, schedule: Q01DX001 (ip), vehicle: saline
[6] = endpoint: mean survival time, dose: 400.0 mg/kg/injection, schedule: Q01DX001 (ip), vehicle: saline

SMILES: COC(=O)C[C@](O)(CCCC(C)(C)O)C(=O)O[C@@H]1C(OC)=C[C@]23CCCN2CCc2cc4c(cc2[C@H]13)OCO4
- T/C (endpoint: mean survival time, dose: 0.06 mg/kg/injection, schedule: Q01DX009 (ip), vehicle: water): 110 % of control
- T/C (endpoint: mean survival time, dose: 0.13 mg/kg/injection, schedule: Q01DX009 (ip), vehicle: water): 111 % of control
- T/C (endpoint: mean survival time, dose: 0.25 mg/kg/injection, schedule: Q01DX009 (ip), vehicle: acid diluted with saline): 113 % of control
- T/C (endpoint: mean survival time, dose: 0.25 mg/kg/injection, schedule: Q01DX009 (ip), vehicle: water): 113 % of control and 123 % of control (2×)
- T/C (endpoint: mean survival time, dose: 0.25 mg/kg/injection, schedule: Q03HX008 (ip), vehicle: acid diluted with saline): 114 % of control
- T/C (endpoint: mean survival time, dose: 0.25 mg/kg/injection, schedule: Q03HX016 (ip), vehicle: acid diluted with saline): 108 % of control
- T/C (endpoint: mean survival time, dose: 0.5 mg/kg/injection, schedule: Q01DX006 (iv), vehicle: acid diluted with saline): 111 % of control
- T/C (endpoint: mean survival time, dose: 0.5 mg/kg/injection, schedule: Q01DX009 (ip), vehicle: acid diluted with saline): 120 % of control
- T/C (endpoint: mean survival time, dose: 0.5 mg/kg/injection, schedule: Q01DX009 (oral), vehicle: acid diluted with saline): 105 % of control
- T/C (endpoint: mean survival time, dose: 0.5 mg/kg/injection, schedule: Q01DX009 (oral), vehicle: saline): 103 % of control
- T/C (endpoint: mean survival time, dose: 0.5 mg/kg/injection, schedule: Q01DX009 (sc), vehicle: acid diluted with saline): 100 % of control
- T/C (endpoint: mean survival time, dose: 0.5 mg/kg/injection, schedule: Q01DX009 (sc), vehicle: saline): 112 % of control
- T/C (endpoint: mean survival time, dose: 0.5 mg/kg/injection, schedule: Q03HX008 (ip), vehicle: acid diluted with saline): 120 % of control
- T/C (endpoint: mean survival time, dose: 0.5 mg/kg/injection, schedule: Q03HX016 (ip), vehicle: acid diluted with saline): 117 % of control
- T/C (endpoint: mean survival time, dose: 1.0 mg/kg/injection, schedule: Q01DX006 (iv), vehicle: acid diluted with saline): 116 % of control
- T/C (endpoint: mean survival time, dose: 1.0 mg/kg/injection, schedule: Q01DX009 (oral), vehicle: acid diluted with saline): 107 % of control
- T/C (endpoint: mean survival time, dose: 1.0 mg/kg/injection, schedule: Q01DX009 (oral), vehicle: saline): 108 % of control
- T/C (endpoint: mean survival time, dose: 1.0 mg/kg/injection, schedule: Q01DX009 (sc), vehicle: acid diluted with saline): 117 % of control
- T/C (endpoint: mean survival time, dose: 1.0 mg/kg/injection, schedule: Q01DX009 (sc), vehicle: saline): 124 % of control
- T/C (endpoint: mean survival time, dose: 1.0 mg/kg/injection, schedule: Q03HX008 (ip), vehicle: acid diluted with saline): 120 % of control
- T/C (endpoint: mean survival time, dose: 1.0 mg/kg/injection, schedule: Q03HX016 (ip), vehicle: acid diluted with saline): 119 % of control
- T/C (endpoint: mean survival time, dose: 1.0 mg/kg/injection, schedule: Q04DX003 (ip), vehicle: acid diluted with saline): 110 % of control
- T/C (endpoint: mean survival time, dose: 2.0 mg/kg/injection, schedule: Q01DX001 (ip), vehicle: acid diluted with saline): 111 % of control
- T/C (endpoint: mean survival time, dose: 2.0 mg/kg/injection, schedule: Q01DX001 (iv), vehicle: acid diluted with saline): 113 % of control
- T/C (endpoint: mean survival time, dose: 2.0 mg/kg/injection, schedule: Q01DX001 (oral), vehicle: acid diluted with saline): 105 % of control
- T/C (endpoint: mean survival time, dose: 2.0 mg/kg/injection, schedule: Q01DX001 (sc), vehicle: acid diluted with saline): 109 % of control
- T/C (endpoint: mean survival time, dose: 2.0 mg/kg/injection, schedule: Q01DX006 (iv), vehicle: acid diluted with saline): 116 % of control
- T/C (endpoint: mean survival time, dose: 2.0 mg/kg/injection, schedule: Q01DX009 (ip), vehicle: acid diluted with saline): 150 % of control
- T/C (endpoint: mean survival time, dose: 2.0 mg/kg/injection, schedule: Q01DX009 (oral), vehicle: acid diluted with saline): 117 % of control
- T/C (endpoint: mean survival time, dose: 2.0 mg/kg/injection, schedule: Q01DX009 (oral), vehicle: saline): 120 % of control
- T/C (endpoint: mean survival time, dose: 2.0 mg/kg/injection, schedule: Q01DX009 (sc), vehicle: saline): 116 % of control
- T/C (endpoint: mean survival time, dose: 2.0 mg/kg/injection, schedule: Q08DX002 (ip), vehicle: acid diluted with saline): 107 % of control
- T/C (endpoint: mean survival time, dose: 4.0 mg/kg/injection, schedule: Q01DX001 (ip), vehicle: acid diluted with saline): 114 % of control
- T/C (endpoint: mean survival time, dose: 4.0 mg/kg/injection, schedule: Q01DX001 (iv), vehicle: acid diluted with saline): 109 % of control
- T/C (endpoint: mean survival time, dose: 4.0 mg/kg/injection, schedule: Q01DX001 (oral), vehicle: acid diluted with saline): 109 % of control
- T/C (endpoint: mean survival time, dose: 4.0 mg/kg/injection, schedule: Q01DX001 (sc), vehicle: acid diluted with saline): 109 % of control
- T/C (endpoint: mean survival time, dose: 4.0 mg/kg/injection, schedule: Q01DX006 (iv), vehicle: acid diluted with saline): 122 % of control
- T/C (endpoint: mean survival time, dose: 4.0 mg/kg/injection, schedule: Q01DX009 (ip), vehicle: acid diluted with saline): 86 % of control
- T/C (endpoint: mean survival time, dose: 4.0 mg/kg/injection, schedule: Q01DX009 (oral), vehicle: acid diluted with saline): 123 % of control
- T/C (endpoint: mean survival time, dose: 4.0 mg/kg/injection, schedule: Q01DX009 (sc), vehicle: acid diluted with saline): 111 % of control
- T/C (endpoint: mean survival time, dose: 4.0 mg/kg/injection, schedule: Q04DX003 (ip), vehicle: acid diluted with saline): 119 % of control
- T/C (endpoint: mean survival time, dose: 4.0 mg/kg/injection, schedule: Q08DX002 (ip), vehicle: acid diluted with saline): 109 % of control
- T/C (endpoint: mean survival time, dose: 8.0 mg/kg/injection, schedule: Q01DX001 (iv), vehicle: acid diluted with saline): 114 % of control
- T/C (endpoint: mean survival time, dose: 8.0 mg/kg/injection, schedule: Q04DX003 (ip), vehicle: acid diluted with saline): 102 % of control
- T/C (endpoint: mean survival time, dose: 125.0 micrograms/kg/injection, schedule: Q03HX024 (ip), vehicle: acid diluted with saline): 119 % of control
- T/C (endpoint: mean survival time, dose: 1000.0 micrograms/kg/injection, schedule: Q03HX024 (ip), vehicle: acid diluted with saline): 89 % of control
- T/C (endpoint: median survival time, dose: 1.0 mg/kg/injection, schedule: Q04DX003 (ip), vehicle: saline): 110 % of control
- T/C (endpoint: median survival time, dose: 2.0 mg/kg/injection, schedule: Q04DX003 (ip), vehicle: saline): 113 % of control
- T/C (endpoint: median survival time, dose: 4.0 mg/kg/injection, schedule: Q04DX003 (ip), vehicle: saline): 100 % of control

SMILES: COC(=O)C(N)Cc1ccc(O)c(N(CCCl)CCCl)c1 (stereo not given)
- T/C (endpoint: mean survival time, dose: 0.01 mg/kg/injection, schedule: Q01DX009 (ip), vehicle: saline): 116 % of control
- T/C (endpoint: mean survival time, dose: 0.25 mg/kg/injection, schedule: Q01DX009 (ip), vehicle: saline): 205 % of control
- T/C (endpoint: mean survival time, dose: 0.5 mg/kg/injection, schedule: Q01DX009 (ip), vehicle: saline): 204 % of control
- T/C (endpoint: mean survival time, dose: 1.0 mg/kg/injection, schedule: Q01DX009 (ip), vehicle: saline): 194 % of control
- T/C (endpoint: mean survival time, dose: 2.5 mg/kg/injection, schedule: Q01DX001 (ip), vehicle: saline): 116 % of control
- T/C (endpoint: mean survival time, dose: 5.0 mg/kg/injection, schedule: Q01DX001 (ip), vehicle: saline): 168 % of control
- T/C (endpoint: mean survival time, dose: 10.0 mg/kg/injection, schedule: Q01DX001 (ip), vehicle: saline): 213 % of control

SMILES: Nc1ccc(NC(=O)c2ccc3ccccc3c2O)c(Cl)c1
- T/C [1]: 94 % of control
- T/C [2]: 97 % of control
- T/C [3]: 94 % of control

SMILES: CNC(=O)CS(=O)(=O)c1ccc(C)cc1
- T/C [4]: 97 % of control
- T/C [5]: 95 % of control
- T/C [6]: 93 % of control

SMILES: OCCNCc1ccc(O)cc1
- T/C (endpoint: mean survival time, dose: 100.0 mg/kg/injection, schedule: Q01DX009 (ip), vehicle: water): 100 % of control
- T/C (endpoint: mean survival time, dose: 100.0 mg/kg/injection, schedule: Q04DX003 (ip), vehicle: water): 103 % of control
- T/C (endpoint: mean survival time, dose: 200.0 mg/kg/injection, schedule: Q01DX009 (ip), vehicle: water): 105 % of control
- T/C (endpoint: mean survival time, dose: 200.0 mg/kg/injection, schedule: Q04DX003 (ip), vehicle: water): 103 % of control
- T/C (endpoint: mean survival time, dose: 400.0 mg/kg/injection, schedule: Q01DX009 (ip), vehicle: water): 102 % of control
- T/C (endpoint: mean survival time, dose: 400.0 mg/kg/injection, schedule: Q04DX003 (ip), vehicle: water): 103 % of control

SMILES: Nc1ncnc2c1ncn2C1OCC(CO)C1O (stereo not given)
- T/C (endpoint: mean survival time, dose: 33.0 mg/kg/injection, schedule: Q01DX001 (ip), vehicle: carboxymethylcellulose (CMC)): 97 % of control
- T/C (endpoint: mean survival time, dose: 66.5 mg/kg/injection, schedule: Q01DX001 (ip), vehicle: carboxymethylcellulose (CMC)): 108 % of control
- T/C [4]: 107 % of control
- T/C (endpoint: mean survival time, dose: 133.0 mg/kg/injection, schedule: Q01DX001 (ip), vehicle: carboxymethylcellulose (CMC)): 97 % of control
- T/C [5]: 101 % of control
- T/C [6]: 107 % of control

SMILES: COC(=O)C(NC(=O)C(C)NC(=O)c1cnc2ccccc2n1)C(C)C (stereo not given)
- T/C [4]: 91 % of control
- T/C [5]: 98 % of control

SMILES: O=C(c1ccccc1)C(Cl)Cl
- T/C (endpoint: mean survival time, dose: 100.0 mg/kg/injection, schedule: Q04DX003 (ip), vehicle: saline): 106 % of control
- T/C (endpoint: mean survival time, dose: 200.0 mg/kg/injection, schedule: Q04DX003 (ip), vehicle: saline): 96 % of control
- T/C (endpoint: mean survival time, dose: 400.0 mg/kg/injection, schedule: Q04DX003 (ip), vehicle: saline): 98 % of control

SMILES: COC(=O)CNc1ccc(S(=O)(=O)c2ccc(N)cc2)cc1
- T/C (endpoint: mean survival time, dose: 100.0 mg/kg/injection, schedule: Q01DX009 (ip), vehicle: Klucel (hydroxypropylcellulose) (HPC)): 107 % of control
- T/C [1]: 97 % of control
- T/C (endpoint: mean survival time, dose: 200.0 mg/kg/injection, schedule: Q01DX009 (ip), vehicle: Klucel (hydroxypropylcellulose) (HPC)): 92 % of control
- T/C [2]: 101 % of control
- T/C (endpoint: mean survival time, dose: 400.0 mg/kg/injection, schedule: Q01DX009 (ip), vehicle: Klucel (hydroxypropylcellulose) (HPC)): 88 % of control
- T/C [3]: 97 % of control
